Test results from patent US20250376498A1, “FUSION PROTEINS COMPRISING AN IMPROVED GLP-1 RECEPTOR AGONIST AND USES THEREOF” (Guangzhou Innogen Pharmaceutical Group Co., Ltd., priority 2022, published 2025).
Entries after “also recorded” stand apart in the source; their conditions may differ.

B1: YN-011: GLP-1 fusion protein of SEQ ID NO: 7: GLP-1 (A8G, G22E, R36G), linker peptide and IgG2/Fc domain (C222S, A330S, P331S) (protein)
chain: HGEGTFTSDVSSYLEEQAAKEFIAWLVKGGGSSGAPPPSGGGGSERKSCVECPPCPAPPVAGPSVFLFPPKPKDTLMISRTPEVTCVVVDVSHEDPEVQFNWYVDGVEVHNAKTKPREEQFNSTFRVVSVLTVVHQDWLNGKEYKCKVSNKGLPSSIEKTISKTKGQPREPQVYTLPPSREEMTKNQVSLTCLVKGFYPSDIAVEWESNGQPENNYKTTPPMLDSDGSFFLYSKLTVDKSRWQQGNVFSCSVMHEALHNHYTQKSLSLSPG

How the values were obtained:
SH-SY5Y neuronal cells [1] = experiment: TNF-α-induced apoptosis in SH-SY5Y cells (western blot Bcl-2, cleaved-caspase3); format: cell-based; conditions: 60 ng/ml TNF-α, 48 hours; YN-011 10, 100, 500 nM; GABA 1, 10, 100 μM; combination 100 μM GABA + 100 nM YN-011
Description: The experimental procedure is as follows: • 1) Digest SH-SY5Y neuronal cells in a 10 cm culture dish using 0.25% trypsin and seed them into a 12-well plate. • 2) Place the culture plate in a CO2 incubator for overnight pre-culture (37° C., 5% CO2) to allow cell adhesion. • 3) Using medium containing 5% FBS, treat the cells in each well with 60 ng/ml TNF-α alone or co-treated with 10, 100, or 500 nM YN-011. Incubate the cells at 37° C. for 48 hours. Each drug treatment is performed in three replicate wells. • 4) After 48 hours, discard the supernatant, gently wash the cells once with PBS, and place the cell culture plate on ice. Add 120 μl of RIPA cell lysis buffer (Beyotime P0013B) to each well, including protease and phosphatase inhibitors, and lyse the cells for 15 minutes. • 5) Transfer the cell lysate to a 1.5 ml EP tube and centrifuge at 14,000 rpm for 30 minutes. • 6) Carefully aspirate the supernatant into a new EP tube, add 5× loading buffer containing β-mercaptoethanol, and boil the samples at 100° C. for 10 minutes to denature the proteins. • 7) Perform SDS-PAGE gel electrophoresis with 10 μg of protein loaded per lane. Position the gel vertically against the power rack in the electrophoresis tank, ensuring that the concave side of the gel faces the power rack. Two gels can share one power rack. Fix the gel and power rack in the electrophoresis tank as required. […]

SH-SY5Y neuronal cells [2] = experiment: Apoptosis in TNF-α-induced SH-SY5Y cells (cleaved-caspase 3 immunofluorescence); format: cell-based; conditions: 60 ng/ml TNF-α, 48 hours; YN-011 10, 100, 500 nM; GABA 1, 10, 100 μM; combination 100 μM GABA + 100 nM YN-011
Description: The experimental procedure is as follows: • 1) Digest the SH-SY5Y neuronal cells in a 10 cm culture dish using 0.25% trypsin to prepare a single-cell suspension. Seed the single-cell suspension into a 24-well plate, placing a sterile coverslip in each well. • 2) Place the culture plate in a CO2 incubator and pre-culture overnight at 37° C. with 5% CO2 to allow the cells to adhere. • 3) Using medium containing 5% FBS, treat the cells in each well with 60 ng/ml TNF-α alone or co-treated with 10, 100, or 500 nM YN-011 at 37° C. for 48 hours. […]

Molecule	TNF-α-induced apoptosis in SH-SY5Y neuronal cells (western blot) (SH-SY5Y neuronal cells [1])	apoptosis in TNF-α-induced neuronal cells (cleaved-caspase 3 positive cells) (SH-SY5Y neuronal cells [2])
NCCCC(=O)O [GABA, γ-aminobutyric acid]	reduces TNF-α-induced apoptosis; also recorded: reduction of TNF-α-induced apoptosis	reduces apoptosis; also recorded: reduction of apoptosis
B1	significantly reduces TNF-α-induced apoptosis; also recorded: reduction of TNF-α-induced apoptosis	significantly reduces apoptosis; also recorded: reduction of apoptosis
